PubChem BioAssay (NCI)
Where “and” joins values, the source holds several entries; their conditions need not be identical. Equal entries are not always repeated.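 Five concentrations, 48 hours, 96-well plates. GI50: concentration for 50% inhibition of growth. TGI is the concentration that stops growth completely.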

Legend:
Assay in all cases: NCI tumour cell line growth inhibition, 48 h
[1] = system: A498 renal
[2] = system: BT-549 breast
[3] = system: HCT-15 colon
[4] = system: HOP-62 NSCLC
[5] = system: HT29 colon
[6] = system: MALME-3M melanoma
[7] = system: NCI-H460 lung
[8] = system: OVCAR-5 ovarian
[9] = system: SK-OV-3 ovarian
[10] = system: TK-10 renal

Compound	GI50 [1]	TGI [1]	GI50 [2]	TGI [2]	GI50 [3]	TGI [3]	GI50 [4]	TGI [4]	GI50 [5]	TGI [5]	GI50 [6]	TGI [6]	GI50 [7]	TGI [7]	GI50 [8]	TGI [8]	GI50 [9]	TGI [9]	GI50 [10]	TGI [10]
COC12C=C/C(=C(/C(=O)OCCSc3ccnn3C)C(=O)CCCCCCCCC3(OC)C=C/C(=C(/C(=O)OCCSc4ccnn4C)C(=O)CCCCCCCC1)O3)O2	0.645 µM	2.2 µM	0.954 µM	2.83 µM	1.08 µM	4.39 µM	0.95 µM	2.81 µM	1.25 µM	> 32.5 µM	0.776 µM	2.32 µM	1.07 µM	3.76 µM	1.73 µM	> 32.5 µM	1.66 µM	24.9 µM	2.35 µM	> 32.5 µM
O=C(O)/C=C/c1ccc[c]([Sb](=[O])([OH])[OH])c1	> 100 µM	> 100 µM	> 100 µM	> 100 µM	> 100 µM	> 100 µM	> 100 µM	> 100 µM	> 100 µM	> 100 µM	> 100 µM	> 100 µM	> 100 µM	> 100 µM	> 100 µM	> 100 µM			> 100 µM	> 100 µM
c1ccc2cc(Cn3cc[n+](Cc4ccc5ccccc5c4)c3)ccc2c1	0.0254 µM	4.69 µM	1.18 µM	3.15 µM	14.9 µM	29.5 µM	3.26 µM	17 µM	0.555 µM	5.74 µM	0.413 µM	2.49 µM	1.27 µM	10.4 µM	1.71 µM	7.19 µM	2.15 µM	11.1 µM	3.32 µM	14.3 µM
CC(=Nc1ccccc1)C1=C(O)C(Cc2cccc(F)c2)NC1=O (centres undefined)	0.0356 µM	0.426 µM	0.173 µM	> 100 µM	0.0444 µM	> 100 µM	0.0557 µM	> 100 µM	0.0372 µM	13.4 µM	0.0419 µM	> 100 µM	0.0403 µM	> 100 µM	0.253 µM	> 100 µM	0.0469 µM	1.33 µM	6.15 µM	> 100 µM
COc1cc(OC)cc(-c2nc3sccn3c2/C=N/N=C(N)N)c1	9.86 µM	17.3 µM	6.87 µM	14 µM	8.1 µM	14.9 µM	9.95 µM	17 µM	8.14 µM	14.9 µM			13.3 µM	42.9 µM	7.25 µM	13.8 µM	7.28 µM	15.5 µM	6.29 µM	12.6 µM
O=c1cc(-c2ccccc2)oc2ccc(OC/C(=N/O)c3ccc(F)cc3)cc12			1.01 µM	2.67 µM	2.99 µM	14.5 µM	8.79 µM	> 50 µM	2.1 µM	41.6 µM			2.54 µM	12.1 µM	16.4 µM	> 50 µM	4.9 µM	30.7 µM	> 50 µM	> 50 µM
C=C1C(=O)O[C@H]2[C@H]1CC/C(COC(=O)c1cn(C)c3ccccc13)=C\CC[C@@]1(C)O[C@@H]21	1.59 µM	3.05 µM	0.514 µM	1.99 µM	0.539 µM	2.26 µM	1.81 µM	3.76 µM	0.526 µM	1.78 µM	1.62 µM	3.34 µM	1.73 µM	3.92 µM	1.56 µM	4.11 µM	4.33 µM	15 µM	1.1 µM	2.3 µM
O=C1OCC(c2ccc(O)cc2)=C1c1cc(O)c(O)c(O)c1	> 100 µM	> 100 µM	> 100 µM	> 100 µM	> 100 µM	> 100 µM	58.6 µM	> 100 µM	> 100 µM	> 100 µM	> 100 µM	> 100 µM	> 100 µM	> 100 µM	55.6 µM	> 100 µM			> 100 µM	> 100 µM
CC(CN1CC(=O)NC(=O)C1)N1CC(=O)NC(=O)C1 (centres undefined)		> 750 µM		> 750 µM		> 750 µM	114 µM	709 µM		> 687 µM		355 µM		> 622 µM		749 µM		> 672 µM		> 702 µM
CCN1C(=O)N(CC)C2C1NN=c1s/c(=C\c3cccs3)c(=O)n12 (centres undefined)	0.021 µM	0.0813 µM	0.443 µM	> 100 µM	0.0575 µM	> 100 µM	0.302 µM	> 100 µM	0.0557 µM	> 100 µM			0.119 µM		0.445 µM	> 100 µM	0.649 µM	> 100 µM	> 100 µM	> 100 µM
COc1cccc(Sc2ccc([N+](=O)[O-])c3no[n+]([O-])c23)c1	15.7 µM	34.6 µM	8.06 µM	22.1 µM	7.82 µM	23.1 µM	25.2 µM	50 µM	9.8 µM	> 55.6 µM	4.67 µM	15 µM	18.7 µM	40.8 µM	8.31 µM	20.2 µM	29.8 µM	> 77.7 µM	10.9 µM	24.7 µM
Cc1cc2c(cc1C)[n+](=O)c(C(=O)/C=C/c1ccc3c(c1)OCO3)c(C)n2[O-]		> 100 µM		> 100 µM		> 100 µM		59.1 µM		> 100 µM		> 100 µM		> 100 µM		> 100 µM		52.2 µM		53.3 µM
CC(=O)NNc1nc(C)c(C(/C=C/c2ccc([N+](=O)[O-])cc2)=N/NC(N)=O)s1		> 100 µM		> 100 µM		> 100 µM		> 100 µM		> 100 µM		> 100 µM		> 100 µM		> 100 µM		> 100 µM		> 100 µM
CCOc1cc(C(=O)O)c2c(ccc3ccc(OC)c(OC)c32)c1OC				> 100 µM		> 100 µM		> 100 µM		> 100 µM		> 100 µM		> 100 µM		> 100 µM		> 100 µM		> 100 µM
COc1ccc(C(C#N)=C2C=CC(=NO)C=C2)cc1	6.39 µM	25.4 µM	14.4 µM	29 µM	11.7 µM	26.1 µM	2.47 µM	6.5 µM	3.59 µM	12.5 µM	12.4 µM	27.5 µM	3.17 µM	12 µM	19.5 µM	34.3 µM	29.6 µM	67.5 µM	3.87 µM	8.72 µM
O=C1C=C2C=CC3CC2(O1)C1CCCCN31 (centres undefined)	10.3 µM and 28.4 µM and 48.9 µM	43.9 µM and 91.5 µM and > 100 µM	13.8 µM and 10.8 µM and 37 µM	51.3 µM and 30.3 µM and > 100 µM	11.4 µM and 11.8 µM and 31 µM	46.4 µM and 29.4 µM and > 100 µM			16.1 µM and 12.9 µM and 34.7 µM	46.2 µM and 27.8 µM and > 100 µM		44.4 µM	22.1 µM and 15.1 µM and 31.7 µM	96.3 µM and 67.1 µM and > 100 µM	34.7 µM and 25.9 µM and > 100 µM	> 100 µM		> 100 µM and 58 µM and 90.6 µM	17.3 µM and 13.6 µM and 31 µM	79 µM and 41.4 µM and > 100 µM
Cc1cc(C(=O)Nc2cc(Oc3ccc4nc(NC(=O)C5CC5)cn4n3)ccc2C)n(C)n1	> 10 µM	> 10 µM	6.42 µM	> 10 µM	6.49 µM	> 10 µM	> 10 µM	> 10 µM	> 10 µM	> 10 µM	> 10 µM	> 10 µM	> 10 µM	> 10 µM	> 10 µM	> 10 µM	> 10 µM	> 10 µM	> 10 µM	> 10 µM
CCCCCCCCCCCC[N+](C)(C)Cc1ccccc1	8.06 µM	24.8 µM	1.74 µM	3.29 µM	13.1 µM	34.3 µM	2.69 µM	7.27 µM	1.23 µM	3.24 µM			3.42 µM	12.7 µM	2.86 µM	13.5 µM	3.05 µM	10.7 µM		
CN(C)c1ccc(C(=N)c2ccc(N(C)C)cc2)cc1		7.45 µM and 4.58 µM	3.77 µM and 5.1 µM	28.9 µM and 29.2 µM	2.56 µM and 2.6 µM	> 100 µM	5.11 µM and 2.96 µM	39.6 µM and 20.5 µM	1.32 µM and 2.11 µM	11.6 µM and 16.4 µM	3.04 µM and 9.7 µM	28.8 µM and 62.2 µM	3.01 µM and 3.54 µM	12.6 µM and 20 µM	7.57 µM and 7.89 µM	> 100 µM	3.55 µM and 2.92 µM	16.6 µM and 22.3 µM	4.47 µM and 7.22 µM	38.9 µM and 91.6 µM
Cc1ccc(-c2c(C#N)[n+](=O)c3cc(F)c(F)cc3n2[O-])cc1	21.1 µM	36.5 µM	18.5 µM	33.7 µM	1.2 µM	3.75 µM	5.26 µM	19.7 µM	24.7 µM	61 µM	2.06 µM	5.23 µM	12.2 µM	30.3 µM	3.91 µM	15.9 µM			2.37 µM	6.69 µM
c1cc(CN2CCCNCCNCCCNCC2)ccc1CN1CCCNCCNCCCNCC1	> 100 µM	> 100 µM	> 100 µM	> 100 µM	> 100 µM	> 100 µM	> 100 µM	> 100 µM	> 100 µM	> 100 µM	> 100 µM	> 100 µM	> 100 µM	> 100 µM	> 100 µM	> 100 µM	> 100 µM	> 100 µM	> 100 µM	> 100 µM
COc1cccc(-n2ncc3c(N/N=C/c4ccc(C)cc4)ncnc32)c1	> 5.43 µM	> 25 µM	> 25 µM	> 25 µM	> 25 µM	> 25 µM	> 25 µM	> 25 µM	1.89 µM	> 25 µM	24.1 µM	> 25 µM	> 25 µM	> 25 µM	> 25 µM	> 25 µM	> 25 µM	> 25 µM	> 25 µM	> 25 µM
Nc1ncnc2c1c(-c1ccc(Oc3ccccc3)cc1)nn2C[C@H]1SSC[C@@H]1O	1.66 µM	4.44 µM	3.63 µM	13.5 µM	0.622 µM	16.4 µM	0.26 µM	3.15 µM	0.304 µM	7.35 µM	0.826 µM	3.94 µM	0.0445 µM	0.206 µM	6.35 µM	41 µM	0.593 µM	3.71 µM	0.585 µM	2.54 µM
CC(CN(C)C)S(=O)(=O)c1ccc(-c2cnc(N)c(C(=O)Nc3ccccc3)n2)cc1 (centres undefined)	2.41 µM	9.02 µM	6.43 µM	27.2 µM	2.91 µM	13.4 µM	8.16 µM	36.2 µM	2.68 µM	13.4 µM	8.16 µM	26.6 µM	2.95 µM	22.2 µM	11.8 µM	34.5 µM	6.04 µM	> 54.5 µM	11.5 µM	> 57.2 µM
O=C1NC(O)c2ccccc2O1 (centres undefined)		> 100 µM		> 100 µM		> 100 µM		> 100 µM		> 100 µM		> 100 µM		> 100 µM		> 100 µM		> 100 µM		> 100 µM
C/C(=N\NC(=O)CC#N)C(CN1CCCCC1)C(c1ccccc1)c1c(O)c2ccccc2oc1=O (centres undefined)		82.5 µM		> 100 µM		> 100 µM				> 100 µM		> 100 µM				> 100 µM		> 100 µM		> 100 µM
O=C(O)CNc1ccc(Cl)c(Cl)c1		86.5 µM		> 100 µM		95.3 µM		86.1 µM		> 100 µM				69.8 µM		> 100 µM		> 100 µM		58.7 µM
O=C1NC(=O)[C@@]2(CC[C@@H](O)C2)c2ccncc21		> 100 µM		> 100 µM		> 100 µM				> 100 µM		> 100 µM		> 100 µM		> 100 µM		> 100 µM		> 100 µM
CCCCCCCN(CCCCCCC)C(=N)c1ccnc2ccccc12			1.36 µM	2.74 µM	1.59 µM	3.04 µM	1.16 µM	2.65 µM	1.24 µM	2.87 µM	1.62 µM	3.37 µM	1.69 µM	3.27 µM	1.8 µM	3.6 µM	1.64 µM	3.14 µM	1.51 µM	2.97 µM
CCNc1cc2oc(=O)cc(C(F)(F)F)c2cc1C		> 100 µM		> 100 µM		> 100 µM		> 100 µM		> 100 µM				> 100 µM		> 100 µM		> 100 µM		> 100 µM
